Assay [1] deals with Hpr6. Nature of the assay: Induction of Hpr6 expression by drugs, western blot. It counts as cell-based, human. An excerpt: 1A: western blot analysis showing expression of Hpr6 (top panel) and tubulin (bottom panel) in the cell lines BT549 (lane 1), MCF-7 (lane 2), HCT-100 (lane 3), MDA-MB-231 (lane 4), MDA-MB-435 (lane 5), and HeLa (lane 6). […] The position of molecular weight markers is indicated to the left. […] MDA-MB-231 cells were untreated (upper panel, lane 1), treated with 0.5 or μM doxorubicin (upper panel, lanes 2 and 3), or 0.25 1 μm camptothecin (upper panel, lane 4) for 3 days, and the expression of Hpr6 was analyzed by western blot.
Drug treatment, viability assays, and immunological analyses. Doxorubicin (Sigma, St. Louis, Mo.) was added to culture media and incubated for five days. Cells were incubated with hydrogen peroxide (Fisher), mechlorethamine (kindly provided by Dr. Robert Orlowski, University of North Carolina at Chapel Hill) or camptothecin (Sigma) for 72 hours. Trypan blue and MTT assays were performed using standard techniques as previously described (Hand et al. Journal of Cellular Biochemistry 2003; 90: 534-47). Western blots of cultured cells and tumors were performed as described previously (Hand et al. Journal of Cellular Biochemistry 2003; 90: 534-47; Yang et al. Tumor Biology 2003; 24: 61-9). The antibodies used were as follows: anti-HA (HAll, BAbCo, Berkeley, Calif.), tubulin (Fisher), and Hpr6 (Meyer et al. Steroids 1998; 63: 111-6). Cells were visualized using a VistaVision inverted microscope attached to a Sony DCS F717 digital camera (VWR, Batavia, Ill.). For immunofluorescence, MCF-7/vector and MCF-7/Hpr6 cells (Hand et al. Journal of Cellular Biochemistry 2003; 90: 534-47) were fixed with 3.7% formaldehyde, permeabilized with 0.1% Triton X-100, blocked with 10% normal goat serum, and incubated with the HAll monoclonal antibody. Cells were then washed, incubated with a FITC-Iabeled anti-mouse secondary antibody (Santa Cruz Biotechnology, Santa Cruz, Calif.), washed, mounted, and visualized using a Zeiss fluorescent microscope.
The effect of the Ad-Hpr6-mut adenovirus in response to chemotherapy was analyzed for two reasons. First, the budding yeast homologue of Hpr6 controls resistance to damaging agents.
On the technique in general: In western blotting, separated proteins are transferred to a membrane and probed.

The nature of assay [2]: Heme binding of purified Hpr6 proteins by absorbance at 400 nm. The note with it: purified protein liberated from GST fusion, triplicate. The procedure: FIG. 2. […] 2A: Purification of GST-Hpr6 (lane 1) and GST-Hpr6-mut (lane 2) fusion proteins. Proteins were purified using glutathione-agarose and analyzed by SDS-PAGE electrophoresis. 2B: Heme binding by Hpr6 (left column) but not Hpr6-mut (right column). Solubilized proteins were analyzed for absorbance at 400 nm, and measurements were performed in triplicate. 2C: western blot analysis of MDA-MB-231 cells infected with 500, 1000, or 2000 pfu/cell of Ad-Hpr6-mut (lanes 1-3) or 2000 pfu/cell of Ad-LacZ (lane 4). Hpr6 expression was visualized with an antibody to the HA epitope tag. D. The Hpr6-mut protein is overexpressed compared to endogenous Hpr6 following Ad-Hpr6-mut infection. MDA-MB 231 cells were infected with Ad-LacZ (lane 1) or Ad-Hpr6-mut (lane 2) and analyzed by western blots probed for HA (top panel), Hpr6 (middle panel), or tubulin (bottom panel). The positions of the exogenous Hpr6-mut and endogenous Hpr6 protein are indicated in the center panel (top and bottom, respectively).
Fusion protein plasmids, preparation, and analysis. Hpr6-GST fusion proteins contained amino acids 43-195 of the Hpr6 open reading frame. […]
Hpr6 binds to heme, and the D120G mutation in the heme-1 domain blocks heme-binding activity. […] The measurement was performed in triplicate, and the difference between Hpr6 and Hpr6-D120G absorbance was statistically significant (P=0.03). […]

For the compound `OO` [hydrogen peroxide], the “induction of Hpr6 expression” value in assay [1] (MDA-MB-231 cells, western blot) is given as “not induced”. With `COc1cccc2c1C(=O)c1c(O)c3c(c(O)c1C2=O)C[C@@](O)(C(=O)CO)C[C@@H]3O[C@H]1C[C@H](N)[C@H](O)[C@H](C)O1` [doxorubicin], the “induction of Hpr6 expression” value is listed as “induced” in assay [1] (MCF-7 cells, data not shown) and “induced” in assay [1] (MDA-MB-231 cells, western blot). On to `N.N.[Cl][Pt][Cl]` [cisplatinum], for which, in assay [1] (MDA-MB-231 cells, western blot), the “induction of Hpr6 expression” value was “not induced”. As to “Hpr6-D120G: mutant Hpr6 polypeptide, SEQ ID NO:1, aspartic acid 120 in heme binding region mutated to glycine; inactive form”, in assay [2], the “heme binding (absorbance at 400 nm)” value is “absent”. Regarding `CC[C@@]1(O)C(=O)OCc2c1cc1n(c2=O)Cc2cc3ccccc3nc2-1` [camptothecin], the “induction of Hpr6 expression” value was “induced” in assay [1] (MCF-7 cells, data not shown) and “induced” in assay [1] (MDA-MB-231 cells, western blot). “Hpr6: wild-type human heme-1 domain protein Hpr6”: the “heme binding (absorbance at 400 nm)” value in assay [2] is “bound efficiently to heme”.

The values above are taken from patent US7342100B2, “Hpr6 mutants and uses thereof” (University of Kentucky Research Foundation, priority 2004, dated 2008).
